Measurements published in patent publication US10793522B2, “Sulfonamides as inhibitors of the uptake of extracellular citrate” (Boehringer Ingelheim International GmbH, priority 2016, dated 2020).

How the values were obtained:
hSLC13A5 [1] = molecular target: T1, hSLC13A5 (Homo sapiens, UniProt Q86YT5); experiment: Recombinant hSLC13A5/14C-citrate uptake assay; assay type: cell-based; settings: HEK293 Flp-In cells over-expressing hSLC13A5; WGA-PVT SPA beads; 14C-citrate approx. 2 μM; 4 h
Excerpt: (5) Recombinant hSLC13A5/^14C-Citrate Uptake Assay
The human embryonic kidney 293 (HEK 293)-Flp-In cells (293Flp-In-hSLC13A5) over-expressing hSLC13A5 transporter were cloned: The originating plasmid pcDNA3.1-hSLC13A5 containing hSLC13A5 was synthesized at GeneArt. The cDNA for hSLC13A5 was taken from this plasmid by means of PCR amplification using primers with added HindIII (N-terminal) and XhoI (C-terminal) restriction sites and sub-cloned in frame into pcDNA5/FRT from Invitrogen using the respective restriction enzymes. HEK293 Flp-In cells from Invitrogen were stably co-transfected using the pcDNA/FRT-hSLC13A5 plasmid as well as the pOG44 plasmid.
HEK 293-Flp-In cells are used that stably over-express hSLC13A5 transporter which is responsible for the uptake of citrate into these cells.
The uptake of ^14C-citrate into the 293Flp-In-hSLC13A5 cells is monitored using the WGA-PVT SPA (wheat germ agglutinin-polyvinyltoluene scintillation proximity assay) beads that bind to the 293Flp-In cells due to their WGA-PVT surface. This assay format is based on the imported radioactive citrate brought into proximity with the SPA beads by virtue of the biological processes within the cells. The radioactive decay is converted into a light signal that can be measured using e.g. the TopCount plate reader.
(§1) Method: ^14C-Citrate Uptake Assay
Test Compound Dilutions (2Fold-Concentrated):
Starting from 10 mM stock solutions in 100% DMSO, compounds are diluted in pure DMSO using the appropriate dilution steps.
Prior to the uptake assay, 200 μL assay medium (lx HBSS (with Ca^2+ and Mg^2+, w/o Phenolred), contains 5.56 mM D(+)-Glucose)+19.44 mM D(+)-Glucose (final concentration of D(+)-Glucose is 25 mM))+4.8 μL compound solution (or pure DMSO for non-inhibited control wells) are mixed (final DMSO concentration in the assay: 1% (v/v)).
After preparing the 2fold-concentrated test compound dilutions, 50 μL are pipetted to each well of white OptiPlates-96 and incubated at 37° C. in an incubator.
^14C-Citrate Working Solution (Volumes Required Per 96-Well):
The 293Flp-In-hSLC13A5 cells are cultivated in cell culture medium (DMEM+10% fetal calf serum+100 μg/mL Hygromycin B). The medium of the confluent cultures is discarded and the cells are washed with DPBS (w/o Mg^2+ w/o Ca^2+). The cells are detached by the addition of 2.0 mL Accumax per 75 cm^2 culture flask for up to 3 minutes at 37° C. and resuspended in 10 mL assay medium. After cell counting, 50,000 cells/well are administered in a volume of 50 μL into the white OptiPlates-96 containing the respective test compound concentrations. Following a 20 min incubation at 37° C. in the cell culture incubator, 20 μL of ^14C-citrate working solution is added to each well (final volume per well: 120 μL; final ^14C-citrate concentration: approx. 2 μM/well).
After incubation for 4 h at 37° C. in a humid cell culture incubator and the addition of 30 μL of WGA-PVT SPA beads to each well (0.25 mg/well), the plates are sealed on the top using a transparent plastic foil. Incubate the plates for 1 h by room temperature and gentle shaking.
After incubation, the plate is placed into the TopCount NXT HTS and the signal is recorded.
The performance of the test compounds is calculated as follows:
Wells containing cells incubated with 1% DMSO only deliver values for the non-inhibited ^14C-citrate uptake into 293Flp-In-hSLC13A5 cells (100% CTL). Wells containing cells which have received 30 mM non-labelled potassium citrate solution in addition to the ^14C-citrate working solution deliver values for the background (0% CTL).
(§2) The IC50 values of the compounds are calculated in IDBS XLfit by sigmoidal dose-response (variable slope).

hSLC13A5 [2] = molecular target: T1, hSLC13A5; experiment: HepG2/14C-citrate uptake assay; assay type: cell-based; design: HepG2 cells endogenously express hSLC13A5 transporter which is responsible for the uptake of citrate into these cells; endogenous in cells; host or cells: HepG2; settings: HepG2 cells endogenously expressing hSLC13A5; Cytostar-T; 14C-citrate ~1.8 μM; incubation over night
Excerpt: (4) HepG2/^14C-Citrate Uptake Assay
HepG2 cells endogenously expressing hSLC13A5 were obtained from the Wistar Institute (Knowles et al., Science 1980, 209, 497-499).
HepG2 cells endogenously express hSLC13A5 transporter which is responsible for the uptake of citrate into these cells. […] The uptake of ^14C-citrate into HepG2 cells is monitored using the Cytostar-T assay. This assay format is based on the imported radioactive citrate brought into proximity with the scintillant contained within the base of the plate by virtue of the biological processes within the cells. The radioactive decay is converted to a light signal based on the integration of the scintillation matrix into the assay plate.
as §1
Starting from 10 mM stock solutions in 100% DMSO, compounds are diluted in pure DMSO using the appropriate dilution steps. Prior to the uptake assay, 400 μL assay medium+4.8 μL compound solution (or pure DMSO for non-inhibited control wells) are mixed (final DMSO concentration in the assay: 1% (v/v)) ^14C-citrate working solution (volumes required per 96-well):
The HepG2 cells are cultivated in cell culture medium (EMEM+10% fetal calf serum+1×NEAA and 10 mM L-Glutamin) For the assay, the medium of the confluent cultures is discarded and the cells are washed with DPBS w/o Mg^2+ w/o Ca^2+. The cells are detached by the addition of 1.0 mL 2× Trypsin in DPBS w/o Mg^2+ w/o Ca^2+ with 7.5 mM EDTA per 75 cm^2 culture flask for up to 3 minutes at 37° C. and resuspended in 10 mL cell culture medium. Following cell counting, 100,000 cells/well are seeded in a volume of 200 μL into Cytostar-T Scintillating 96-well microplates. After overnight incubation in a humid cell culture incubator at 37° C., 5% CO2, the cell culture medium is carefully aspirated and the cells are incubated with 200 μL prewarmed (37° C.) assay medium (50% DMEM+50% Ham's F-12+15 mM HEPES (pH 7.4) (medium contains 15.5 m M D(+)-glucose) per well for at least 1 h prior to the experiment.
Immediately prior to uptake assay, the assay medium is carefully removed and 100 μL test compound dilution is added to each well (n=3).
Following a 20 min incubation at 37° C. in the cell culture incubator, 20 μL of ^14C-citrate working solution is added to each well (final volume per well: 120 μL; final ^14C-citrate concentration ˜1.8 μM/well)).
After incubation over night at 37° C. in the cell culture incubator, the plates are sealed on the top using a transparent plastic foil and on the bottom using a white plastic foil. Following the sealing, the plate is placed into the TopCount NXT HTS and the signal is recorded.
as §2

T1 sequence (Q86YT5 whole entry): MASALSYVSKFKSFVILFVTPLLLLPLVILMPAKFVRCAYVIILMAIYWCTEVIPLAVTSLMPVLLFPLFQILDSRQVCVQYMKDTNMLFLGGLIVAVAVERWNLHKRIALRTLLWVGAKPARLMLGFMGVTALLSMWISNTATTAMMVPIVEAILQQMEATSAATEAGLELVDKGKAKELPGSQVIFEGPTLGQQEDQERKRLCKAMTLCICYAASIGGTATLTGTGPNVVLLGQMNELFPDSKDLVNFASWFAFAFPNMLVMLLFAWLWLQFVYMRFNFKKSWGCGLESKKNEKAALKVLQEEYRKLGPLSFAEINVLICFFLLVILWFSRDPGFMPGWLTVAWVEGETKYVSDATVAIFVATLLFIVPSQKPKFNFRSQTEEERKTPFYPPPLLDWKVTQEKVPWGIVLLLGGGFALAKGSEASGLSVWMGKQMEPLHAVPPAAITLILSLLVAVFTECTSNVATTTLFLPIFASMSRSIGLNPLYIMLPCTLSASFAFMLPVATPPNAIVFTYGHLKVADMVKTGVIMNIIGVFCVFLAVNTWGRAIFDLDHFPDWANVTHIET

CCOc1cc(Cl)cc(S(=O)(=O)N2CCC(C(=O)NCc3ccc(Cl)cn3)CC2)c1 [(I-52)]
IC50 (hSLC13A5 [1]): 0.2 µM | IC50 (hSLC13A5 [2]): 0.051 µM

CCOc1cc(Cl)cc(S(=O)(=O)N2CCC(C(=O)NCc3ccccn3)CC2)c1 [(I-53)]
IC50 (hSLC13A5 [1]): 0.41 µM | IC50 (hSLC13A5 [2]): 0.11 µM

CCOc1cc(Cl)cc(S(=O)(=O)N2CCC(C(=O)NCc3ccc(C#N)cc3)CC2)c1 [(I-54)]
IC50 (hSLC13A5 [1]): 0.231 µM | IC50 (hSLC13A5 [2]): 0.062 µM

CCOc1cc(Cl)cc(S(=O)(=O)N2CCC(C(=O)NCc3ccc(F)cn3)CC2)c1 [(I-55)]
IC50 (hSLC13A5 [1]): 0.189 µM | IC50 (hSLC13A5 [2]): 0.056 µM

COc1cc(Cl)cc(S(=O)(=O)N2CCC(C(=O)NCc3ccc(F)cn3)CC2)c1 [(I-56)]
IC50 (hSLC13A5 [1]): 0.436 µM | IC50 (hSLC13A5 [2]): 0.292 µM

COc1cc(Cl)cc(S(=O)(=O)N2CCC(C(=O)NCc3ccc(F)cc3)CC2)c1 [(I-57)]
IC50 (hSLC13A5 [1]): 0.167 µM | IC50 (hSLC13A5 [2]): 0.048 µM

COc1ncccc1CNC(=O)C1CCN(S(=O)(=O)c2cc(C)cc(Br)c2)CC1 [(I-58)]
IC50 (hSLC13A5 [1]): 0.837 µM | IC50 (hSLC13A5 [2]): 0.168 µM

CCc1ccc(CNC(=O)C2CCN(S(=O)(=O)c3cc(C)cc(Br)c3)CC2)nc1 [(I-59)]
IC50 (hSLC13A5 [1]): 0.098 µM | IC50 (hSLC13A5 [2]): 0.027 µM

Cc1cc(Br)cc(S(=O)(=O)N2CCC(C(=O)NCc3cccnc3)CC2)c1 [(I-60)]
IC50 (hSLC13A5 [1]): 0.918 µM | IC50 (hSLC13A5 [2]): 0.422 µM

Cc1cc(Br)cc(S(=O)(=O)N2CCC(C(=O)NCc3ccc(F)cn3)CC2)c1 [(I-62)]
IC50 (hSLC13A5 [1]): 0.232 µM | IC50 (hSLC13A5 [2]): 0.099 µM
